According to patent US12173018B2, “Penicillin-binding protein inhibitors” (priority 2018, dated 2024):
Values after ≈ are worked out from the molar mass of the structure shown.

Assays:
[1] = system: E. coli AG100; test: Broth microdilution MIC, E. coli AG100 (wild-type parent); assay type: cell-based; conditions: Escherichia coli; wild-type parent E. coli AG100, broth microdilution; read-out: MIC E. coli AG100
Summary of the method: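 Starting inoculum of 5×10^5 CFU/mL, from colonies grown 3-5 h in Mueller-Hinton broth with divalent cations, added to two-fold compound dilution series.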

[2] = system: E. coli 901C; test: microbe, parasite or virus in culture; assay type: cell-based; conditions: Escherichia coli; hyper-permeable E. coli 901C, broth microdilution; read-out: MIC E. coli 901C
Summary of the method: (§1)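 MIC = lowest concentration showing no visible growth after 16-20 h at 37° C. Cation-adjusted MH broth, 2-fold serial dilutions, starting inoculum 5×10^5 CFU/mL, per CLSI methods.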

[3] = system: E. coli AG100A; test: microbe, parasite or virus in culture; assay type: cell-based; conditions: Escherichia coli, read-out: MIC E. coli AG100A
Summary of the method: as §1

[4] = system: E. coli D22; test: microbe, parasite or virus in culture; assay type: cell-based; conditions: Escherichia coli; hyper-permeable E. coli D22, broth microdilution; read-out: MIC E. coli D22
Summary of the method: as §1

[5] = system: K. pneumoniae 848844; test: microbe, parasite or virus in culture; assay type: cell-based, Klebsiella pneumoniae; conditions: Klebsiella pneumoniae; K. pneumoniae 848844 producing SHV-11 and KPC-2; read-out: MIC K. pneumoniae 848844
Summary of the method: as §1

[6] = system: N. gonorrhoeae ATCC 49226; test: Liquid broth MIC, N. gonorrhoeae ATCC 49226; assay type: cell-based; conditions: Neisseria gonorrhoeae, ATCC49226; N. gonorrhoeae ATCC 49226, liquid broth; read-out: Minimum Inhibitory Concentration, N. gonorrhoeae ATCC 49226
Summary of the method: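 Visual MIC: lowest concentration well showing no bacterial growth after 40-42 h at 36° C in 5% CO2. Inoculum 5×10^5 CFU/mL from colonies swabbed into GC broth, set by OD600; compounds in 2-fold serial dilution.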

SMILES	MIC [1]	MIC [2]	MIC [3]	MIC [4]	MIC [5]	MIC [6]
CCN1CCN(C(=O)NC(C(=O)N[C@H]2Cc3cc(F)cc(C(=O)O)c3OB2O)c2csc(N)n2)C(=O)C1=O (stereo partly drawn) [Example 16, (3R)-3-(2-(2-aminothiazol-4-yl)-2-(4-ethyl-2,3-dioxopiperazine-1-carboxamido)acetamido)-6-fluoro-2-hydroxy-3,4-dihydro-2H-benzo[e][1,2]oxaborinine-8-carboxylic acid]	32 to 64 µg/mL	0.5 to 1 µg/mL	2 to 4 µg/mL	8 to 16 µg/mL	32 to 64 µg/mL	–
CCN1CCN(C(=O)NC(C(=O)N[C@H]2Cc3cccc(C(=O)O)c3OB2O)c2ccc(O)cc2)C(=O)C1=O (stereo partly drawn) [Example 27, (3R)-3-(2-(4-ethyl-2,3-dioxopiperazine-1-carboxamido)-2-(4-hydroxyphenyl)acetamido)-2-hydroxy-3,4-dihydro-2H-benzo[e][1,2]oxaborinine-8-carboxylic acid]	32 to 64 µg/mL	0.5 to 1 µg/mL	2 to 4 µg/mL	8 to 16 µg/mL	> 128 µg/mL	–
CCN1CCN(C(=O)NC(C(=O)N[C@H]2Cc3cccc(C(=O)O)c3OB2O)c2ccc(O)c(O)c2Cl)C(=O)C1=O (stereo partly drawn) [Example 37, (3R)-3-(2-(2-chloro-3,4-dihydroxyphenyl)-2-(4-ethyl-2,3-dioxopiperazine-1-carboxamido)acetamido)-2-hydroxy-3,4-dihydro-2H-benzo[e][1,2]oxaborinine-8-carboxylic acid]	32 to 64 µg/mL	0.5 to 1 µg/mL	2 to 4 µg/mL	–	–	4 to 8 µg/mL (≈ 6.96 to 13.9 µM)
CCN1CCN(C(=O)NC(C(=O)N[C@H]2Cc3cccc(C(=O)O)c3OB2O)c2cnc(N)s2)C(=O)C1=O (stereo partly drawn) [Example 51, (3R)-3-(2-(2-aminothiazol-5-yl)-2-(4-ethyl-2,3-dioxopiperazine-1-carboxamido)acetamido)-2-hydroxy-3,4-dihydro-2H-benzo[e][1,2]oxaborinine-8-carboxylic acid]	32 to 64 µg/mL	0.5 to 1 µg/mL	8 to 16 µg/mL	–	–	–
CCCN1CCN(C(=O)NC(C(=O)N[C@H]2Cc3cccc(C(=O)O)c3OB2O)c2ccc(O)c(O)c2Cl)C(=O)C1=O (stereo partly drawn) [Example 82, (3R)-3-(2-(2-chloro-3,4-dihydroxyphenyl)-2-(2,3-dioxo-4-propylpiperazine-1-carboxamido)acetamido)-2-hydroxy-3,4-dihydro-2H-benzo[e][1,2]oxaborinine-8-carboxylic acid]	32 to 64 µg/mL	2 to 4 µg/mL	2 to 4 µg/mL	2 to 4 µg/mL	> 128 µg/mL	–
CCN1CCN(C(=O)NC(C(=O)N[C@H]2Cc3cccc(C(=O)O)c3OB2O)c2ccc(O)cc2F)C(=O)C1=O (stereo partly drawn) [Example 87, (3R)-3-(2-(4-ethyl-2,3-dioxopiperazine-1-carboxamido)-2-(2-fluoro-4-hydroxyphenyl)acetamido)-2-hydroxy-3,4-dihydro-2H-benzo[e][1,2]oxaborinine-8-carboxylic acid]	–	–	–	–	–	1 to 2 µg/mL (≈ 1.84 to 3.69 µM)
CCN1CCN(C(=O)NC(C(=O)N[C@H]2Cc3cccc(C(=O)O)c3OB2O)c2cc(O)c(O)cc2F)C(=O)C1=O (stereo partly drawn) [Example 90, (3R)-3-(2-(4-ethyl-2,3-dioxopiperazine-1-carboxamido)-2-(2-fluoro-4,5-dihydroxyphenyl)acetamido)-2-hydroxy-3,4-dihydro-2H-benzo[e][1,2]oxaborinine-8-carboxylic acid]	8 to 16 µg/mL	0.5 to 1 µg/mL	2 to 4 µg/mL	8 to 16 µg/mL	32 to 64 µg/mL	–
CCN1CCN(C(=O)NC(C(=O)N[C@H]2Cc3cccc(C(=O)O)c3OB2O)c2ccc(S(N)(=O)=O)cc2)C(=O)C1=O (stereo partly drawn) [Example 102, (3R)-3-(2-(4-ethyl-2,3-dioxopiperazine-1-carboxamido)-2-(4-sulfamoylphenyl)acetamido)-2-hydroxy-3,4-dihydro-2H-benzo[e][1,2]oxaborinine-8-carboxylic acid]	8 to 16 µg/mL	< 0.25 µg/mL	2 to 4 µg/mL	–	–	1 to 2 µg/mL (≈ 1.7 to 3.4 µM)
NS(=O)(=O)c1ccc(C(NC(=O)N2CCN(CCF)C(=O)C2=O)C(=O)N[C@H]2Cc3cccc(C(=O)O)c3OB2O)cc1 (stereo partly drawn) [Example 103, (3R)-3-(2-(4-(2-fluoroethyl)-2,3-dioxopiperazine-1-carboxamido)-2-(4-sulfamoylphenyl)acetamido)-2-hydroxy-3,4-dihydro-2H-benzo[e][1,2]oxaborinine-8-carboxylic acid]	8 to 16 µg/mL	< 0.25 µg/mL	2 to 4 µg/mL	–	–	1 to 2 µg/mL (≈ 1.65 to 3.3 µM)
CCN1CCN(C(=O)NC(C(=O)N[C@H]2Cc3cccc(C(=O)O)c3OB2O)c2cccc(N)n2)C(=O)C1=O (stereo partly drawn) [Example 104, (3R)-3-(2-(6-aminopyridin-2-yl)-2-(4-ethyl-2,3-dioxopiperazine-1-carboxamido)acetamido)-2-hydroxy-3,4-dihydro-2H-benzo[e][1,2]oxaborinine-8-carboxylic acid]	32 to 64 µg/mL	< 0.25 µg/mL	0.5 to 1 µg/mL	2 to 4 µg/mL	> 128 µg/mL	–
CCN1CCN(C(=O)NC(C(=O)N[C@H]2Cc3cccc(C(=O)[O-])c3OB2O)c2ccc[n+](CC(N)=O)c2)C(=O)C1=O (stereo partly drawn) [Example 107, (3R)-3-(2-(1-(2-amino-2-oxoethyl)pyridin-1-ium-3-yl)-2-(4-ethyl-2,3-dioxopiperazine-1-carboxamido)acetamido)-2-hydroxy-3,4-dihydro-2H-benzo[e][1,2]oxaborinine-8-carboxylate]	32 to 64 µg/mL	8 to 16 µg/mL	8 to 16 µg/mL	32 to 64 µg/mL	32 to 64 µg/mL	–
CCN1CCN(C(=O)N[C@@H](C(=O)N[C@H]2Cc3ccc(F)c(C(=O)O)c3OB2O)[C@@H](C)O)C(=O)C1=O [Example 110, (R)-3-((2R,3R)-2-(4-ethyl-2,3-dioxopiperazine-1-carboxamido)-3-hydroxybutanamido)-7-fluoro-2-hydroxy-3,4-dihydro-2H-benzo[e][1,2]oxaborinine-8-carboxylic acid]	8 to 16 µg/mL	2 to 4 µg/mL	8 to 16 µg/mL	8 to 16 µg/mL	32 to 64 µg/mL	–
CCN1CCN(C(=O)NC(C(=O)N[C@H]2Cc3cccc(C(=O)O)c3OB2O)c2cccs2)C(=O)C1=O (stereo partly drawn) [Example 115, (3R)-3-(2-(4-ethyl-2,3-dioxopiperazine-1-carboxamido)-2-(thiophen-2-yl)acetamido)-2-hydroxy-3,4-dihydro-2H-benzo[e][1,2]oxaborinine-8-carboxylic acid]	32 to 64 µg/mL	< 0.25 µg/mL	2 to 4 µg/mL	8 to 16 µg/mL	> 128 µg/mL	–
CCN1CCN(C(=O)NC(C(=O)N[C@H]2Cc3cccc(C(=O)O)c3OB2O)c2cccc(O)n2)C(=O)C1=O (stereo partly drawn) [Example 117, (3R)-3-(2-(4-ethyl-2,3-dioxopiperazine-1-carboxamido)-2-(6-hydroxypyridin-2-yl)acetamido)-2-hydroxy-3,4-dihydro-2H-benzo[e][1,2]oxaborinine-8-carboxylic acid]	> 128 µg/mL	0.5 to 1 µg/mL	2 to 4 µg/mL	8 to 16 µg/mL	32 to 64 µg/mL	–
CCN1CCN(C(=O)NC(C(=O)N[C@H]2Cc3cccc(C(=O)O)c3OB2O)c2cnc(O)cn2)C(=O)C1=O (stereo partly drawn) [Example 121, (3R)-3-(2-(4-ethyl-2,3-dioxopiperazine-1-carboxamido)-2-(5-hydroxypyrazin-2-yl)acetamido)-2-hydroxy-3,4-dihydro-2H-benzo[e][1,2]oxaborinine-8-carboxylic acid]	32 to 64 µg/mL	0.5 to 1 µg/mL	2 to 4 µg/mL	8 to 16 µg/mL	> 128 µg/mL	–
